Measurements as given in patent publication US20230041065A1, “METHODS FOR GENERATING HEMATOPOIETIC STEM CELLS” (The Brigham and Women`s Hospital, Inc., priority 2019, published 2023).

How the values were obtained:
[1] = test system: cd41:eGFP+ HSCs emerging from flk1:mCherry+ endothelial cells; assay: Time-lapse confocal imaging of cd41:eGFP+ HSCs emerging from flk1:mCherry+ endothelial cells in transgenic embryos; assay type: in vivo, zebrafish; conditions: 26-42 hpf
Description: Mice were purchased Cd45.2 (C57BL6/J) and Cd45.1 (SJL) from The Jackson Laboratory and zebrafish morpholinos from GeneTools. Microangiography was performed by injecting fluorescent-labeled dextran dye in the atrium of zebrafish heart and its passage was recorded using live imaging. Immunostaining of zebrafish heart and mouse AGM were analyzed using an inverted fluorescent microscope. Cardiac tamponade, heart rate, and pulse frequency were analyzed in zebrafish embryos using bright field imaging or time-lapse confocal microscopy. The movement of red blood cells in blood vessels was analyzed as well as the endothelial-to-HSC transition in zebrafish transgenic embryos using time-lapse confocal imaging.
Zebrafish embryos were treated with the following chemical modulators in E3 fish media: 100 uM L-NAME (Fisher Scientific), 50 uM Digitoxigenin (Sigma), 25-50 uM Yoda1 (Cayman Chemical), 1 uM Nanaomycin (Nana; Fisher Scientific), 100 uM Gadolinium chloride (GdCl3; Sigma), 5-10 uM 4α-phorbol 12, 13-didecanaote (4Apdd; Sigma), or GSK205 (10 uM).
cd41:eGFP were crossed with flk1:mCherry zebrafish and flk1:mCherry with lcr:eGFP zebrafish and injected morpholino in their transgenic embryos. […] The relative movement of lcr:eGFP^+ red blood cells was analyzed in the context of flk1:mCherry^+ endothelium. We performed image analysis using Imaris (Bitplane) software.

[2] = test system: donor-derived blood lineages; assay: Functional and phenotypic analyses of donor-derived blood lineages in primary transplant; assay type: in vivo, mouse
Description: Pulsating blood vessels like conditions were stimulated in vitro using Flexcell FX-4000 machine. To analyze roles of pharmacological targets in regulating the endothelial-to-HSC transition, mouse embryo-derived AGM or whole mouse embryo were exposed ex vivo with biomechanical stretching, chemicals, or drugs. Next, hematopoietic colony formation assays were performed by incubating mouse AGM-derived cells in StemCell M3434 media for seven days. Serial transplantation of AGM-derived HSCs in lethally irradiated SJL mice were performed. The stem cell frequency upon biomechanical stretching was analyzed using a limiting dilution assay. To characterize properties of AGM-HSC-derived blood cells in primary transplants, percentage chimerism and reconstitution was measured using FACS, globin transcripts were analyzed using quantitative reverse transcriptase-PCR, myeloperoxidase amount was measured using PicoKine ELISA kit, TCR-β rearrangement was analyzed using PCR for TCR-β locus, pre-immune IG detection was analyzed using Thermo-Fisher Mouse Ig Isotyping kit, and delayed-type hypersensitivity was analyzed by injecting sheep RBC (Rockland Immunochemicals) in the footpad of pre-sensitized mice.
FACS was used to sort erythroid precursors (Cd45.2^+, Ter119^+, Cd71^+) from the unlysed bone marrow isolated from AGM-transplanted mice. Total RNA was isolated using the RNAeasy Minikit (QIAGEN) and cDNA synthesis performed using Superscript III (Invitrogen). Quantitative real-time PCR was performed using SYBR Green (QuantaBio) on an MX3000P machine with the indicated primers (Sankaran et al., 2009). We normalized the expression to that of glyceraldehyde-3-phosphate-dehydrogenase (Gapdh) (Ochida et al., 2010).
Neutrophils (Cd45.2^+, Gr1^+, Mac1^+) were FACS sorted from the isolated bone marrow of 16 week-primary transplanted mice and cultured in IMDM with 10% FBS overnight (500,000 cells/mL) in 24-well plates. Supernatant was collected and the MPO concentration measured using the Mouse MPO/Myeloperoxidase PicoKine™ ELISA Kit (Boster). The MPO concentration was also measured in blood serum.
T cells (Cd45.2^+, Cd3^+) and myeloid cells (Cd45.2^+, Mac1^+) were FACS sorted from the splenocytes of 16 week-primary transplanted mice. Next, genomic DNA was extracted, and PCR performed for DH (β2.1-JH (32.7 rearrangements within TCR-β locus. Our samples were denatured (94° C., 1 min), annealed (63° C., 2 mins) and extended (72° C., 2 mins) for 35 cycles. Primer sequences are as follows:
Transplant mice were sensitized with sheep red blood cells (sRBC, 10^9 cells/mL, 50 μL per site, Rockland Immunochemicals) through subcutaneous (lower back) and intradermal injections (right footpad). […] After 48 hours of the challenge, the footpad thickness was measured with a micro-caliper. […]

[3] = test system: human iPSC-derived hemogenic endothelial cells; assay: Yoda1 treatment of human iPSC-derived hemogenic endothelial cells: EHT and gene expression; assay type: cell-based
Excerpt: To determine the role of Dnmt3b in the EHT, we analyzed the endothelial and hematopoietic gene expression levels using whole transcriptome analyses. […] To consolidate our findings, we further independently measured the transcript levels of endothelial and hematopoietic genes. […] In summary, pulsation-mediated Piezo1 activation enhances Dnmt3b expression to repress endothelial genes, stimulating the endothelial-to-HSC transition. To analyze the conserved role of PIEZO1-mediated mechanosensitive mechanisms in human hematopoiesis, we employed directed differentiation of constitutive RUNX1c:tdTomato human induced pluripotent stem cells (iPSCs) to hemogenic endothelial cells, and treated such hemogenic endothelial cells with Yoda1.
Embryoid body and hemogenic endothelium differentiation was performed as described in (Sugimura et al. 2017; Ditadi et al. 2015). Briefly, hiPSC colonies were dissociated with 0.05% trypsin for 5 min at 37° C., washed with PBS+2% FBS, and resuspended in StemPro-34 (Invitrogen, 10639-011) supplemented with L-glutamine (2 mM), penicillin/streptomycin ([…]), ascorbic acid (1 mM), human holo-Transferrin ([…], Sigma T0665), monothioglycerol (MTG, 0.4 mM), BMP4 (10 ng/ml), and Y-27632 (10 μM). Five million cells were seeded into 10 cm dishes (Ezsphere, Asahi Glass) for the spheroid formation. On Day 1, bFGF (5 ng/ml) and BMP4 (10 ng/ml) was added to the medium. On Day 2, the media was changed with the StemPro-34 supplemented with SB431542 (6 μM), CHIR99021 (3 μM), bFGF (5 ng/ml), and BMP4 (10 ng/ml). On Day 3, the medium was replaced with StemPro-34 supplemented with VEGF (15 ng/ml) and bFGF (10 ng/ml). On day 6, the medium was changed to StemPro-34 supplemented with bFGF (5 ng/ml), VEGF (15 ng/ml), interleukin (IL)-6 (10 ng/ml), IGF-1 (25 ng/ml), IL-11 (5 ng/ml), SCF (50 ng/ml) and EPO (2IU). The cells were maintained in a 5% CO2, 5% O2 and 95% humidity incubator. All cytokines were purchased from Peprotech.

[4] = human iPSC-derived hemogenic endothelial cells

## Clc1cccc(Cl)c1CSc1nnc(-c2cnccn2)s1 [Yoda1, 2-[5-[[(2,6-Dichlorophenyl)methyl]thio]-1,3,4-thiadiazol-2-yl]-pyrazine]
[1]; control embryos
  HSC formation (endothelial-to-HSC transition): stimulates HSC formation in control embryos
[1]; sih-MO embryos
  HSC formation (endothelial-to-HSC transition): rescues HSC formation in sih-MO embryos
[2]; bone marrow Cd71+Ter119+ sorted cells, primary transplant
  expression of adult and embryonic hemoglobin types in donor erythroid cells: reconstitutes to red cells containing adult hemoglobin
[2]; bone marrow Gr1+Mac1+ sorted cells, overnight culture, ELISA
  myeloperoxidase (MPO) of donor neutrophils: reconstitute to functional myeloid cells displaying sufficient MPO levels
[2]; primary transplant mice, footpad
  delayed-type hypersensitivity: possess T-cell mediated immune response
[2]; spleen-sorted Cd3+ T cells
  TCRβ locus rearrangement of donor T cells: display T-cell receptor β (TCR β) rearrangement
[3]; RUNX1c:tdTomato human iPSC-derived hemogenic endothelial cells
  human endothelial-to-hematopoietic transition: stimulated the human endothelial-to-hematopoietic transition
[3]; [4]
  DNMT3A expression: not DNMT3A expression
  DNMT3B expression: enhanced DNMT3B expression
  expression of endothelial genes (VEGFA, HEY2, GPR116, GNA13, CDH5, PLXND1): silenced endothelial genes
  expression of hematopoietic genes (RUNX1, SPI1, CEBPA, TAL1, GATA2): induced the expression of hematopoietic genes
